Results published in PubChem BioAssay AID328 (DTP/NCI, 2004).
“And” between values parts separate entries of the source, which are not always exact repeats. Equal entries are not always repeated. Inconclusive results and toxic doses are left out.

Test system: BDF1 mice, P388 leukemia ip, median survival T/C
Experiment: NCI In Vivo Anticancer Drug Screen. Data for tumor model P388 Leukemia (intraperitoneal) in B6D2F1 (BDF1) mice
Settings: endpoint: median survival time, higher = longer survival
Summary of the method: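 In tumour-bearing mice, survival after compound treatment is set against the vehicle group and given as a quotient.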

[1] = dose: 100.0 mg/kg/injection, schedule: Q01DX009 (ip), vehicle: saline
[2] = dose: 100.0 mg/kg/injection, schedule: Q04DX003 (ip), vehicle: saline
[3] = dose: 200.0 mg/kg/injection, schedule: Q04DX003 (ip), vehicle: saline
[4] = dose: 400.0 mg/kg/injection, schedule: Q04DX003 (ip), vehicle: saline
[5] = dose: 50.0 mg/kg/injection, schedule: Q01DX009 (ip), vehicle: saline with Tween-80
[6] = dose: 100.0 mg/kg/injection, schedule: Q01DX009 (ip), vehicle: saline with Tween-80
[7] = dose: 100.0 mg/kg/injection, schedule: Q04DX003 (ip), vehicle: saline with Tween-80
[8] = dose: 200.0 mg/kg/injection, schedule: Q01DX009 (ip), vehicle: saline with Tween-80
[9] = dose: 200.0 mg/kg/injection, schedule: Q04DX003 (ip), vehicle: saline with Tween-80
[10] = dose: 400.0 mg/kg/injection, schedule: Q01DX009 (ip), vehicle: saline with Tween-80
[11] = dose: 400.0 mg/kg/injection, schedule: Q04DX003 (ip), vehicle: saline with Tween-80
[12] = dose: 25.0 mg/kg/injection, schedule: Q01DX009 (ip), vehicle: Klucel (hydroxypropylcellulose) (HPC)
[13] = dose: 50.0 mg/kg/injection, schedule: Q01DX009 (ip), vehicle: Klucel (hydroxypropylcellulose) (HPC)
[14] = dose: 100.0 mg/kg/injection, schedule: Q01DX009 (ip), vehicle: Klucel (hydroxypropylcellulose) (HPC)
[15] = dose: 100.0 mg/kg/injection, schedule: Q04DX003 (ip), vehicle: Klucel (hydroxypropylcellulose) (HPC)
[16] = dose: 200.0 mg/kg/injection, schedule: Q04DX003 (ip), vehicle: Klucel (hydroxypropylcellulose) (HPC)
[17] = dose: 50.0 mg/kg/injection, schedule: Q04DX003 (ip), vehicle: saline
[18] = dose: 6.25 mg/kg/injection, schedule: Q01DX009 (ip), vehicle: saline
[19] = dose: 400.0 mg/kg/injection, schedule: Q04DX003 (ip), vehicle: Klucel (hydroxypropylcellulose) (HPC)
[20] = dose: 100.0 mg/kg/injection, schedule: Q01DX001 (ip), vehicle: saline
[21] = dose: 200.0 mg/kg/injection, schedule: Q01DX001 (ip), vehicle: saline
[22] = dose: 50.0 mg/kg/injection, schedule: Q04DX003 (ip), vehicle: saline with Tween-80
[23] = dose: 50.0 mg/kg/injection, schedule: Q01DX001 (ip), vehicle: saline

c1ccc2c3csc4ccccc4c-3nc2c1
T/C (dose: 1.56 mg/kg/injection, schedule: Q04DX003 (ip), vehicle: Klucel (hydroxypropylcellulose) (HPC)): 95 % of control | T/C (dose: 3.12 mg/kg/injection, schedule: Q04DX003 (ip), vehicle: Klucel (hydroxypropylcellulose) (HPC)): 95 % of control | T/C (dose: 5.7 mg/kg/injection, schedule: Q01DX009 (ip), vehicle: Klucel (hydroxypropylcellulose) (HPC)): 92 % of control and 113 % of control | T/C (dose: 6.25 mg/kg/injection, schedule: Q04DX003 (ip), vehicle: Klucel (hydroxypropylcellulose) (HPC)): 104 % of control | T/C (dose: 8.75 mg/kg/injection, schedule: Q01DX009 (ip), vehicle: Klucel (hydroxypropylcellulose) (HPC)): 88 % of control and 118 % of control | T/C (dose: 12.5 mg/kg/injection, schedule: Q04DX003 (ip), vehicle: Klucel (hydroxypropylcellulose) (HPC)): 104 % of control | T/C (dose: 13.0 mg/kg/injection, schedule: Q01DX009 (ip), vehicle: Klucel (hydroxypropylcellulose) (HPC)): 92 % of control and 113 % of control

Cc1cc2cc3c(=O)[nH]c(=O)nc-3n(CC(O)C(O)C(O)COP(=O)(O)O)c2cc1C (stereo not drawn)
T/C (dose: 66.0 mg/kg/injection, schedule: Q01DX009 (ip), vehicle: saline): 100 % of control | T/C [1]: 95 % of control and 100 % of control | T/C [2]: 100 % of control | T/C [3]: 113 % of control | T/C [4]: 100 % of control

COc1ccc(CC(=O)Cc2ccc(OC)c(OC)c2)cc1OC
T/C (dose: 25.0 mg/kg/injection, schedule: Q01DX009 (ip), vehicle: saline with Tween-80): 104 % of control | T/C [5]: 113 % of control | T/C [6]: 113 % of control and 123 % of control | T/C [7]: 109 % of control | T/C [8]: 95 % of control and 120 % of control | T/C [9]: 104 % of control | T/C [10]: 118 % of control | T/C [11]: 90 % of control

Nc1nc2c(c(=O)[nH]1)N(C=O)C(CNc1ccc(C(=O)N[C@@H](CCC(=O)O)C(=O)O)cc1)CN2 (stereo partly drawn)
T/C [6]: 95 % of control | T/C [2]: 104 % of control | T/C [8]: 95 % of control | T/C [3]: 104 % of control | T/C [10]: 95 % of control | T/C [4]: 100 % of control

O=c1ccc(=O)c2c(=O)c3ccccc3c(=O)c1=2
T/C [12]: 104 % of control | T/C [13]: 103 % of control | T/C (dose: 50.0 mg/kg/injection, schedule: Q04DX003 (ip), vehicle: Klucel (hydroxypropylcellulose) (HPC)): 95 % of control | T/C [14]: 99 % of control | T/C [15]: 104 % of control | T/C [16]: 88 % of control

Oc1c(Cl)cc(Cl)cc1C=Nc1cc(C(F)(F)F)ccc1NCc1ccccc1
T/C [5]: 93 % of control | T/C [6]: 89 % of control | T/C [8]: 94 % of control

C/C=C(/Cl)c1c(C)cc(C)cc1C
T/C [6]: 108 % of control | T/C [7]: 100 % of control | T/C [8]: 108 % of control | T/C [9]: 111 % of control | T/C [11]: 103 % of control

CC1(C)N=C(N)N=C(N)N1c1cccc(Br)c1
T/C (dose: 2.7 mg/kg/injection, schedule: Q04DX003 (ip), vehicle: saline): 100 % of control | T/C (dose: 4.0 mg/kg/injection, schedule: Q04DX003 (ip), vehicle: saline): 90 % of control | T/C (dose: 33.0 mg/kg/injection, schedule: Q04DX003 (ip), vehicle: saline): 168 % of control | T/C [17]: 177 % of control and 179 % of control | T/C (dose: 75.0 mg/kg/injection, schedule: Q04DX003 (ip), vehicle: saline): 90 % of control

CN(Cc1ccccc1)/N=N/c1nc[nH]c1C(N)=O
T/C [12]: 95 % of control | T/C [13]: 110 % of control | T/C [14]: 110 % of control | T/C (dose: 200.0 mg/kg/injection, schedule: Q01DX009 (ip), vehicle: Klucel (hydroxypropylcellulose) (HPC)): 100 % of control

Nc1nc(N)nc(CCP(CCc2nc(N)nc(N)n2)CCc2nc(N)nc(N)n2)n1
T/C (dose: 50.0 mg/kg/injection, schedule: Q04DX003 (ip), vehicle: saline sonified): 100 % of control | T/C (dose: 100.0 mg/kg/injection, schedule: Q04DX003 (ip), vehicle: saline sonified): 110 % of control | T/C (dose: 200.0 mg/kg/injection, schedule: Q04DX003 (ip), vehicle: saline sonified): 110 % of control

CCOC(=O)CCN(C)C
T/C [1]: 102 % of control | T/C (dose: 200.0 mg/kg/injection, schedule: Q01DX009 (ip), vehicle: saline): 95 % of control | T/C (dose: 400.0 mg/kg/injection, schedule: Q01DX009 (ip), vehicle: saline): 102 % of control

Cn1/c2cc/c1=C(\c1ccc(S(=O)(=O)O)cc1)c1ccc([n-]1)/C(c1ccc(S(=O)(=O)O)cc1)=c1/cc/c([nH]1)=C(\c1ccc(S(=O)(=O)O)cc1)c1ccc([n-]1)/C=2c1ccc(S(=O)(=O)O)cc1.O.O=S(=O)(O)C(F)(F)F.[Cu+2]
T/C [18]: 101 % of control | T/C (dose: 50.0 mg/kg/injection, schedule: Q01DX009 (ip), vehicle: saline): 101 % of control

OC(CBr)c1ccc(Cl)cc1 (stereo not drawn)
T/C [7]: 100 % of control | T/C [9]: 95 % of control | T/C [11]: 95 % of control

Cc1c(NC(=O)Nc2cccc(F)c2)c(=O)n(-c2ccccc2)n1C
T/C [6]: 120 % of control | T/C [8]: 95 % of control | T/C [10]: 90 % of control

Oc1ccc(/C=N/NC(=S)Nc2ccccc2)nc1
T/C [19]: 150 % of control

Cc1ccc(S(=O)(=O)Oc2ccc(-c3ccc(OS(=O)(=O)c4ccc(C)cc4)cc3)cc2)cc1
T/C [5]: 107 % of control | T/C [6]: 111 % of control | T/C [8]: 90 % of control | T/C [10]: 94 % of control

NC(=O)c1cc(O)c(Br)c(O)c1
T/C [20]: 100 % of control | T/C [21]: 109 % of control | T/C (dose: 400.0 mg/kg/injection, schedule: Q01DX001 (ip), vehicle: saline): 95 % of control

CCCCCCCCCCCCCCCCS(=O)(=O)NN
T/C (dose: 12.5 mg/kg/injection, schedule: Q01DX009 (ip), vehicle: other): 91 % of control | T/C (dose: 25.0 mg/kg/injection, schedule: Q01DX009 (ip), vehicle: other): 96 % of control | T/C (dose: 50.0 mg/kg/injection, schedule: Q01DX009 (ip), vehicle: other): 102 % of control

Cc1c(Cl)cccc1NC(=O)c1ccccc1C(=O)O
T/C [15]: 91 % of control | T/C [16]: 95 % of control | T/C [19]: 100 % of control

CCOC(C[Se][Se]CC(OCC)OCC)OCC
T/C (dose: 1.56 mg/kg/injection, schedule: Q01DX009 (ip), vehicle: saline): 99 % of control | T/C (dose: 3.13 mg/kg/injection, schedule: Q01DX009 (ip), vehicle: saline): 102 % of control | T/C [18]: 102 % of control

O=C(/C=C/c1ccc2c(c1)OCO2)c1ccc(Cl)cc1
T/C [22]: 100 % of control | T/C [7]: 100 % of control | T/C [9]: 100 % of control

CC(=O)C(C)(CCC#N)CCC#N
T/C [22]: 104 % of control | T/C [7]: 100 % of control

COc1cccc(/C=C/C(=O)O)c1OC
T/C (dose: 25.0 mg/kg/injection, schedule: Q04DX003 (ip), vehicle: water): 106 % of control | T/C (dose: 50.0 mg/kg/injection, schedule: Q04DX003 (ip), vehicle: water): 103 % of control | T/C (dose: 100.0 mg/kg/injection, schedule: Q04DX003 (ip), vehicle: water): 112 % of control | T/C (dose: 200.0 mg/kg/injection, schedule: Q04DX003 (ip), vehicle: water): 106 % of control | T/C (dose: 400.0 mg/kg/injection, schedule: Q04DX003 (ip), vehicle: water): 97 % of control

CCOC(=O)C(Br)C(Br)c1ccccc1 (stereo not drawn)
T/C [23]: 100 % of control | T/C [22]: 91 % of control | T/C [20]: 90 % of control | T/C [7]: 108 % of control | T/C [21]: 118 % of control | T/C [9]: 112 % of control

CC[S+](CC)CC
T/C (dose: 12.5 mg/kg/injection, schedule: Q04DX003 (ip), vehicle: saline): 109 % of control | T/C (dose: 25.0 mg/kg/injection, schedule: Q01DX001 (ip), vehicle: saline): 100 % of control | T/C (dose: 25.0 mg/kg/injection, schedule: Q04DX003 (ip), vehicle: saline): 109 % of control | T/C [23]: 100 % of control | T/C [17]: 109 % of control | T/C [20]: 100 % of control | T/C [2]: 100 % of control
